± gives the standard deviation of the averaged measurements.
Key:
Settings in all cases: treatment time: 3 days
UT-SCC-106A [1] = assay: maximal % inhibition of viability relative to DMSO; higher = stronger effect
In short: (§1)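 Viability was read with CellTiter-Glo 2.0 luminescence and scaled against vehicle (0.1% DMSO) and cell-killing control wells. The assay used HPV-negative HNSCC cell lines at 500 cells/well in 384-well plates, grown on plastic, on Matrigel or Myogel coatings (500 µg/mL), or embedded in Matrigel or Myogel plus rat collagen I, and treated for 3 days at five 10-fold concentrations. IC50, maximal inhibition and drug sensitivity score were derived from percent-inhibition dose–response curves fitted in the FIMM pipeline.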

UT-SCC-14 = assay: as above
In short: as §1

UT-SCC-24B = assay: as above
In short: as §1

UT-SCC-28 [2] = assay: as above
In short: as §1

UT-SCC-40 [3] = assay: as above
In short: as §1

UT-SCC-42A [4] = assay: as above
In short: as §1

UT-SCC-42B [5] = assay: as above
In short: as §1

UT-SCC-44 [6] = assay: as above
In short: as §1

UT-SCC-73 [7] = assay: as above
In short: as §1

UT-SCC-81 [8] = assay: as above
In short: as §1

UT-SCC-8 [9] = assay: as above
In short: as §1

UT-SCC-106A [10] = assay: drug sensitivity score (DSS); higher = more sensitive; extreme values may be limits of the assay
In short: as §1

UT-SCC-28 [11] = assay: as above
In short: as §1

UT-SCC-40 [12] = assay: as above
In short: as §1

UT-SCC-42A [13] = assay: as above
In short: as §1

UT-SCC-42B [14] = assay: as above
In short: as §1

UT-SCC-44 [15] = assay: as above
In short: as §1

UT-SCC-73 [16] = assay: as above
In short: as §1

UT-SCC-81 [17] = assay: as above
In short: as §1

UT-SCC-8 [18] = assay: as above
In short: as §1

[19] = culture condition: embedded in Matrigel
[20] = culture condition: embedded in Myogel + collagen I
[21] = culture condition: on top of Matrigel
[22] = culture condition: on top of Myogel
[23] = culture condition: plastic 2D (no matrix)

CO[C@H]1C[C@@H]2CC[C@@H](C)[C@@](O)(O2)C(=O)C(=O)N2CCCC[C@H]2C(=O)O[C@H]([C@H](C)C[C@@H]2CC[C@@H](OC(=O)C(C)(CO)CO)[C@H](OC)C2)CC(=O)[C@H](C)/C=C(\C)[C@@H](O)[C@@H](OC)C(=O)[C@H](C)C[C@H](C)/C=C/C=C/C=C/1C [Temsirolimus]
maximal % inhibition of viability (UT-SCC-106A [1]; [19]): 36.2 ± 2.6% | maximal % inhibition of viability (UT-SCC-106A [1]; [20]): 33.9 ± 5.5% | maximal % inhibition of viability (UT-SCC-106A [1]; [21]): 36.4 ± 0.4% | maximal % inhibition of viability (UT-SCC-106A [1]; [22]): 25.1 ± 1.4% | maximal % inhibition of viability (UT-SCC-106A [1]; [23]): 39.8 ± 5% | maximal % inhibition of viability (UT-SCC-14; [19]): 53.5 ± 4.4% | maximal % inhibition of viability (UT-SCC-14; [20]): 52.5 ± 4.8% | maximal % inhibition of viability (UT-SCC-14; [21]): 50.5 ± 2.5% | maximal % inhibition of viability (UT-SCC-14; [22]): 45.4 ± 4.4% | maximal % inhibition of viability (UT-SCC-14; [23]): 46.3 ± 8.9% | maximal % inhibition of viability (UT-SCC-24B; [19]): 25.8 ± 7.9% | maximal % inhibition of viability (UT-SCC-24B; [20]): 42.2 ± 4% | maximal % inhibition of viability (UT-SCC-24B; [21]): 27.4 ± 4.7% | maximal % inhibition of viability (UT-SCC-24B; [22]): 32.7 ± 1.8% | maximal % inhibition of viability (UT-SCC-24B; [23]): 29.7 ± 5.7% | maximal % inhibition of viability (UT-SCC-28 [2]; [19]): 29.7 ± 9.9% | maximal % inhibition of viability (UT-SCC-28 [2]; [20]): 37.2 ± 7.1% | maximal % inhibition of viability (UT-SCC-28 [2]; [21]): 38 ± 2.7% | maximal % inhibition of viability (UT-SCC-28 [2]; [23]): 35.3 ± 4.3% | maximal % inhibition of viability (UT-SCC-40 [3]; [19]): 33.9 ± 13% | maximal % inhibition of viability (UT-SCC-40 [3]; [20]): 40.5 ± 20% | maximal % inhibition of viability (UT-SCC-40 [3]; [21]): 24.6 ± 6.1% | maximal % inhibition of viability (UT-SCC-40 [3]; [22]): 21.9 ± 3.2% | maximal % inhibition of viability (UT-SCC-40 [3]; [23]): 22.1 ± 2.3% | maximal % inhibition of viability (UT-SCC-42A [4]; [19]): 35 ± 6.8% | maximal % inhibition of viability (UT-SCC-42A [4]; [20]): 39.1 ± 4.7% | maximal % inhibition of viability (UT-SCC-42A [4]; [21]): 41 ± 2.4% | maximal % inhibition of viability (UT-SCC-42A [4]; [22]): 37.4 ± 3.1% | maximal % inhibition of viability (UT-SCC-42A [4]; [23]): 39.6 ± 2.3% | maximal % inhibition of viability (UT-SCC-42B [5]; [19]): 25.8 ± 20% | maximal % inhibition of viability (UT-SCC-42B [5]; [21]): 17.6 ± 6.1% | maximal % inhibition of viability (UT-SCC-42B [5]; [22]): 9.87 ± 4.1% | maximal % inhibition of viability (UT-SCC-42B [5]; [23]): 15.3 ± 3.6% | maximal % inhibition of viability (UT-SCC-44 [6]; [19]): 29.4 ± 1.9% | maximal % inhibition of viability (UT-SCC-44 [6]; [20]): 38.9 ± 6.9% | maximal % inhibition of viability (UT-SCC-44 [6]; [21]): 38.4 ± 1.5% | maximal % inhibition of viability (UT-SCC-44 [6]; [22]): 38.6 ± 4% | maximal % inhibition of viability (UT-SCC-44 [6]; [23]): 35 ± 1.3% | maximal % inhibition of viability (UT-SCC-73 [7]; [19]): 32 ± 6.7% | maximal % inhibition of viability (UT-SCC-73 [7]; [20]): 38.7 ± 21% | maximal % inhibition of viability (UT-SCC-73 [7]; [21]): 29.7 ± 3.1% | maximal % inhibition of viability (UT-SCC-73 [7]; [22]): 34.5 ± 1.6% | maximal % inhibition of viability (UT-SCC-73 [7]; [23]): 24 ± 6.6% | maximal % inhibition of viability (UT-SCC-81 [8]; [19]): 63.3 ± 16% | maximal % inhibition of viability (UT-SCC-81 [8]; [20]): 56.5 ± 6% | maximal % inhibition of viability (UT-SCC-81 [8]; [21]): 44.6 ± 5.2% | maximal % inhibition of viability (UT-SCC-81 [8]; [22]): 54.3 ± 0.82% | maximal % inhibition of viability (UT-SCC-81 [8]; [23]): 49.7 ± 7.5% | maximal % inhibition of viability (UT-SCC-8 [9]; [19]): 41.8 ± 4.6% | maximal % inhibition of viability (UT-SCC-8 [9]; [20]): 31.4 ± 11% | maximal % inhibition of viability (UT-SCC-8 [9]; [21]): 38.9 ± 9.9% | maximal % inhibition of viability (UT-SCC-8 [9]; [22]): 48.1 ± 8.7% | maximal % inhibition of viability (UT-SCC-8 [9]; [23]): 42.3 ± 5.6% | drug sensitivity score (UT-SCC-106A [10]; [19]): 6.03 ± 1.3 DSS | drug sensitivity score (UT-SCC-106A [10]; [20]): 5.33 ± 1.3 DSS | drug sensitivity score (UT-SCC-106A [10]; [21]): 5.93 ± 1 DSS | drug sensitivity score (UT-SCC-106A [10]; [22]): 3.33 ± 0.21 DSS | drug sensitivity score (UT-SCC-106A [10]; [23]): 7.6 ± 0.85 DSS | drug sensitivity score (UT-SCC-28 [11]; [19]): 4.9 ± 2.9 DSS | drug sensitivity score (UT-SCC-28 [11]; [20]): 4.77 ± 3.2 DSS | drug sensitivity score (UT-SCC-28 [11]; [21]): 8.37 ± 2.5 DSS | drug sensitivity score (UT-SCC-28 [11]; [23]): 8.8 ± 1.3 DSS | drug sensitivity score (UT-SCC-40 [12]; [19]): 6.03 ± 2 DSS | drug sensitivity score (UT-SCC-40 [12]; [20]): 6.8 ± 2.6 DSS | drug sensitivity score (UT-SCC-40 [12]; [21]): 4.17 ± 1.6 DSS | drug sensitivity score (UT-SCC-40 [12]; [22]): 4.53 ± 1.1 DSS | drug sensitivity score (UT-SCC-40 [12]; [23]): 3.6 ± 1 DSS | drug sensitivity score (UT-SCC-42A [13]; [19]): 4.67 ± 1.3 DSS | drug sensitivity score (UT-SCC-42A [13]; [20]): 5.23 ± 3.3 DSS | drug sensitivity score (UT-SCC-42A [13]; [21]): 5.87 ± 1.4 DSS | drug sensitivity score (UT-SCC-42A [13]; [22]): 6.4 ± 0.35 DSS | drug sensitivity score (UT-SCC-42A [13]; [23]): 4.5 ± 1.1 DSS | drug sensitivity score (UT-SCC-42B [14]; [19]): 4 ± 6 DSS | drug sensitivity score (UT-SCC-42B [14]; [21]): 0 DSS | drug sensitivity score (UT-SCC-42B [14]; [22]): 0 DSS | drug sensitivity score (UT-SCC-42B [14]; [23]): 0.933 ± 0.84 DSS | drug sensitivity score (UT-SCC-44 [15]; [19]): 5.33 ± 4 DSS | drug sensitivity score (UT-SCC-44 [15]; [20]): 9.3 ± 3.5 DSS | drug sensitivity score (UT-SCC-44 [15]; [21]): 9.13 ± 1 DSS | drug sensitivity score (UT-SCC-44 [15]; [22]): 8.97 ± 1.4 DSS | drug sensitivity score (UT-SCC-44 [15]; [23]): 7.9 ± 0.78 DSS | drug sensitivity score (UT-SCC-73 [16]; [19]): 9.13 ± 6.3 DSS | drug sensitivity score (UT-SCC-73 [16]; [20]): 8.27 ± 5.5 DSS | drug sensitivity score (UT-SCC-73 [16]; [21]): 7.23 ± 0.64 DSS | drug sensitivity score (UT-SCC-73 [16]; [22]): 7.1 ± 2.2 DSS | drug sensitivity score (UT-SCC-73 [16]; [23]): 4.53 ± 1.6 DSS | drug sensitivity score (UT-SCC-81 [17]; [19]): 14.9 ± 3.1 DSS | drug sensitivity score (UT-SCC-81 [17]; [20]): 15 ± 3.8 DSS | drug sensitivity score (UT-SCC-81 [17]; [21]): 10.2 ± 0.74 DSS | drug sensitivity score (UT-SCC-81 [17]; [22]): 14.7 ± 1.5 DSS | drug sensitivity score (UT-SCC-81 [17]; [23]): 12.1 ± 2.3 DSS | drug sensitivity score (UT-SCC-8 [18]; [19]): 9.4 ± 0.36 DSS | drug sensitivity score (UT-SCC-8 [18]; [20]): 4.53 ± 0.57 DSS | drug sensitivity score (UT-SCC-8 [18]; [21]): 9.17 ± 1.2 DSS | drug sensitivity score (UT-SCC-8 [18]; [22]): 11.4 ± 1.6 DSS | drug sensitivity score (UT-SCC-8 [18]; [23]): 10.4 ± 1.1 DSS

From the supplement of paper PMC7017272
